Results as given in paper PMC11272598, “RG7774 (Vicasinabin), an orally bioavailable cannabinoid receptor 2 (CB2R) agonist, decreases retinal vascular permeability, leukocyte adhesion, and ocular inflammation in animal models” (Frontiers in Pharmacology, 2024).
Like-named read-outs stand apart in the source and are kept apart here.

Columns and labels:
Hepatocyte clearance = assay type: in vitro ADME; settings: read-out: Hepatocyte CL
Method: For animals, hepatocyte suspension cultures were either freshly prepared by liver perfusion or from cryopreserved hepatocyte batches (BioIVT, NY, USA). For humans, commercially-available, pooled (5–20 donors), cryopreserved human hepatocytes from nontransplantable liver tissues were used (BioIVT). Suspension cultures were incubated in Nunc U96 PP-0.5 mL plates (Nunc Natural, 267245) in a Thermo Forma incubator (Fischer Scientific, Wohlen, Switzerland) equipped with Variomag® Teleshake shakers (Sterico, Wangen, Switzerland) to maintain cell dispersion. The cell culture medium was William’s media supplemented with glutamine, antibiotics, insulin, dexamethasone, and 10% FCS. RG7774 (1 μM) were incubated in 96-well plates containing suspension cultures (1 × 10^6 hepatocytes/mL [~1 mg/mL protein concentration]), with each well containing a total volume of 100 μL. Plates were shaken at 900 rpm for up to 2 h in 5% CO2 at 37 °C. Reactions were quenched after 3, 6, 10, 20, 40, 60, and 120 min with 200 μL methanol containing an internal standard. Samples were cooled, centrifuged, and analyzed by LC-MS/MS. Log peak area ratios (test compound peak area/internal standard peak area) or concentrations were plotted against incubation time using a linear fit to the data with emphasis on the initial rate of compound disappearance.

[1] = GSH adduct formation in human liver microsomes; assay type: in vitro ADME
Method: GSH adduct formation assays were conducted as previously described. Briefly, RG7774 was incubated with human liver microsomes to form reactive metabolites, and glutathione was added as a nucleophile to convert the reactive metabolites into stable conjugates that could be analyzed by MS.

human CB2R = target: T1, human CB2R (Homo sapiens, UniProt P34972); test: Competition binding, [^3H]-CP55940, CHO cell membranes; settings: competition binding assays
T1 construct: bgal (beta-galactosidase fragment of the PathHunter system); host or cells: CHO-K1
T1 sequence (P34972 whole entry, the tested form may be a part): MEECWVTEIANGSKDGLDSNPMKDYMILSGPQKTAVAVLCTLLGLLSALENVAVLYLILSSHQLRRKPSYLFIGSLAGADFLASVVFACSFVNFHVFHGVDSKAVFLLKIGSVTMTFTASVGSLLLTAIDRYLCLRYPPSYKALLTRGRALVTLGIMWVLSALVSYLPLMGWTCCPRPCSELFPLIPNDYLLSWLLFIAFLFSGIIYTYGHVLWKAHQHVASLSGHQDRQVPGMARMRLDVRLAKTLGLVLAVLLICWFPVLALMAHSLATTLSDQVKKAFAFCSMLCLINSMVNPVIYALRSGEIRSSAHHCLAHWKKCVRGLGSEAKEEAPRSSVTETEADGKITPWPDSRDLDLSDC
Method: Competition and saturation binding assays were performed using the radiolabeled CB1R/CB2R agonist [^3H]-CP55940 (PerkinElmer, Waltham, MA, United States) in recombinant cell systems, and the newly developed CB2R-selective agonist [^3H]-RO6753361 ([Chicca et al., 2024]) in cells expressing endogenous CB1R/CB2R. Competition assays were conducted by incubating 5, 40, or 40 µg of membrane protein from CHO cells, Jurkat cells or spleen cells, respectively, with 1.5 nM [^3H]-CP55940 or 1.5 nM [^3H]-RO6753361 in the presence or absence of increasing concentrations of ligand (RG7774 or control) for 2 h at 30°C in a final volume of 0.2 mL of assay buffer (50 mmol/L Tris-HCl, 5 mmol/L MgCl2, 2.5 mmol/L EDTA, and 0.5% fatty acid-free BSA [pH 7.4] and 1% DMSO), with gentle shaking. Saturation binding assays were conducted by incubating 1–3 μg, 40 μg, or 30–40 μg of membrane protein from CHO cells, Jurkat cells, or spleen tissue, respectively, with 12 concentrations in the range of 80–0.039 nM [^3H]-CP55940 or [^3H]-RO6753361 for 2 h at 30°C in a final volume of 0.2 mL/well of assay buffer without DMSO. […] IC50 values and Hill slopes were determined with a 4-parameter logistic model using ActivityBase (ID Business Solution, Guilford, United Kingdom) and pKi values were determined using the Cheng-Prusoff equation ([Cheng and Prusoff, 1973]).

Mouse DAGL = Mouse DAGL assay (brain); assay type: biochemical; settings: RG7774 10 µM
Method: Mouse brain or human HaCaT cells (CLS Cell Lines Service, GmbH, Eppelheim, Germany) were homogenized in 50 mM Tris-HCl (pH 7.4) using a glass potter, and homogenates were centrifuged at 4°C sequentially at 800 g (10 min) and 10,000 g (30 min). The final pellet (80–200 µg) was resuspended in 50 mM Tris-HCl (pH 7.4) containing 10 mM CaCl2 and incubated at 37°C for 30 min with sn-1[^14C]-stearoyl-2-arachidonoyl-glycerol (100 µM) (ARC, MO, USA). Reactions were stopped by adding chloroform/methanol (2:1, v/v), and the organic phase was dried and fractionated by thin-layer chromatography on silica gel, as previously reported. Levels of 1[^14C]-stearoyl acid radioactivity were determined by cutting the appropriate band from the gel and analyzing using a β-scintillation counter. Mouse cells were preincubated for 15 min with RG7774 (10 µM) and added to the incubation medium. Human cells were preincubated for 15 min with 8 different concentrations of RG7774 (0.1-500 µM) and added to the incubation medium. Control experiments were carried out in the presence of the selective DAGL inhibitor, D053 (10 µM).

Compound: Cn1nnnc1Cn1nnc2c(N3CC[C@H](O)C3)nc(C(C)(C)C)nc21 [RG7774, (S)-1-(5-tert-butyl-3-[(1-methyl-1H-tetrazol-5-yl)methyl]-3H-[1,2,3]triazolo[4,5-d]pyrimidin-7-yl)pyrrolidin-3-ol]
- hepatocyte CLint at 1 µM (Hepatocyte clearance; human, pooled cryopreserved human hepatocytes in suspension): 1.7 µL/min/1e6 cells
- hepatocyte CLint at 1 µM (Hepatocyte clearance; mouse): 49.3 µL/min/1e6 cells
- hepatocyte CLint at 1 µM (Hepatocyte clearance; rat): 37.9 µL/min/1e6 cells
- GSH (human liver microsomes) adducts [1]: none detected
- binding selectivity for recombinant human CB2R over CB1R (human CB2R): > 195 fold
- Mean ± SEM % inhibition of control, Mouse DAGL (Mouse DAGL): 17.0 ± 17.7%
